The values that follow come from patent publication US7122336B2, “Therapeutic and diagnostic methods for ulcerative colitis and associated disorders” (University of Medicine & Dentistry of New Jersey, priority 2000, dated 2006).

One assay relates to CEP. The assay can be described thus: Cell surface expression of CEP. It counts as cell-based.
Assay [1] concerns secretion of hTM5 in LS-180 cells. Nature of the assay: Secretion of hTM5 by 35S-methionine-labeled LS-180 cells (chase with drugs, immunoprecipitation of culture medium, SDS-PAGE-fluorography, densitometry of 31 kDa band). It counts as cell-based, human. The following applies: PMA 10 μM; for effect of inhibitors of secretion on the secretion of hTM5 (in words): LC-1 immunoprecipitation (FIG. 7D), monensin 10 μM, methylamine 10 mM added during the chase; for effect on the secretion of hTM5 (in words): 7E12H12 and LC-1 immunoprecipitations (FIGS. 7B and 7C); for effect on the secretion of hTM5 (in words) / stimulation of the secretion of hTM5 (31 kDa band, densitometry) compared to only DMSO treatment: A23187 2 μM, 2 h chase; for stimulation of the secretion of hTM5 (31 kDa band, densitometry) compared to only DMSO treatment: LS-180 culture medium. How it is done: (§1) A) Culture supernatant of LS-180 cells, labeled with […] (100 μCi/ml) for 16 h and chased for 2 h incubated with various drugs, was immunoprecipitated and analyzed by 3–12% SDS-PAGE-fluorography. For untreated cells, 10 μl/ml of DMSO was added during the chase. Immunoprecipitation was performed using 7E12H12 (lanes 1–4) or LC-1 (lanes 5–8) mAbs. Lanes 1 and 5 show the immunoprecipitation profile of the culture supernatant from untreated cells. Note the presence of a 31 kDa protein in lanes 1 and 5. The effect of secretagogues was examined by addition of 2 μM A23187 (lanes 2 and 7) or 10 μM PMA (lanes 3 and 6) during the chase. To examine the combined effect, A23187 (2 μM) and PMA (10 μM) were added together (lanes 4 and 8, respectively). B and C) For quantitative determination, a densitometric analysis of the 31 kDa band, coimmunoprecipitated with CEP (lanes 1–4) or hTM5 (lane 5–8) was performed with a 1 square millimeter window using a BioRad 670 densitometer after overnight exposure of the gel. Histograms B and C represent lanes 1–4 and 5–8 respectively. D) Effect of inhibitors of secretion on the secretion of hTM5. The inhibitors were added during the chase and the culture medium was immunoprecipitated with LC-1 mAb. Lane-1: PMA (10 μM), Lane-2: DMSO only, Lane-3: monensin (10 μM), and Lane-4: methylamine (10 mM) and analyzed by 3–12% gradient SDS-PAGE-fluorography.
To examine the possible association of hTM5 with the colon epithelium-specific protein (CEP), reactive with 7E12H12 monoclonal antibody, we adopted the protocols for radiolabeling, chase and drug treatment used in the study of regulated and unregulated secretion of glycoproteins from colon cancer cells (McCool DJ., et al., Biochem J. 1995; 312: 125–33; and Brion C., et al., J. Biol. Chem. 1992; 267: 1477–83). LS-180 cells were labeled with ^35S-methionine by treatment with methionine-free medium supplemented with 5% dialyzed fetal bovine serum and ^35S-methionine (100 μCi/ml) for 16 hours. Labeling was terminated by washing the cells two times with PBS followed by chase with regular DME for 2 hr. To examine the effects of stimulators and inhibitors of secretion, appropriate drugs were added during the chase period as described (McCool et al., supra; and Brion, et al., supra). Immunoprecipitations were performed on the culture medium as described in Kesari, K V and Geliebter, J. Immunol. Letts 1993: 38: 77–83. After the chase, the culture medium was collected, centrifuged to remove any insoluble material, and mixed with one tenth volume of 10× lysis buffer (500 mM Tris Cl, […], 5% NP40, and protease inhibitor cocktail, Complete, Boehringer-Mannheim, GMBH, Germany). To reduce nonspecific binding, the culture medium, where LS-180 cells were grown, was preabsorbed with protein G agarose (GIBCO-BRL, NY) for 16 h at 4° C. Immunoprecipitation was carried out on ice with purified monoclonal antibodies (5 μg/ml) or ascites (10 μl/ml) for 2 h and the immune complexes were collected on Protein G Agarose. To collect IgM immune complexes, protein G Agarose was pre-coated with affinity purified rabbit anti mouse IgM-μ chain-specific immunoglobulins (2 mg IgG/ml gel). The immune complexes were washed three times by centrifugation with ice cold washing buffer-1 (50 mM Tris Cl, pH 7.4, 150 mM NaCl, 5 mM EDTA, and 0.5% NP40), followed by one wash in buffer-2 (50 mM Tris Cl, pH 7.4, 500 mM MaCl, 5 mM EDTA, and 0.5% NP40), and once with buffer-3 (50 mM Tris Cl, pH 7.4).
To investigate whether the release of hTM5 from LS-180 cells is an active process, the effect of known stimulators (secretagogues), and inhibitors of secretion was examined in the present invention. Two secretagogues, the Ca ^2 ionophore A23187, and phorbol-12-myristate-13-acetate (PMA) have been used to explore the secretory pathways in LS-180 cells (McCool D J et al (1995) supra). […]

Assay [2] relates to mucin secretion in LS-180 cells. The following applies: McCool D J, et al. (1995); cited from earlier work.
Assay [3] deals with secretion of CEP in LS-180 cells. The assay can be described thus: Secretion of CEP by 35S-methionine-labeled LS-180 cells (immunoprecipitation with 7E12H12). Type of assay: cell-based, human. The note with it: 7E12H12 immunoprecipitation (FIG. 7A, lanes 1-4); A23187 2 μM, PMA 10 μM, or both. How it is done: as §1, with “gradient SDS-PAGE-fluorography. […]” for “gradient SDS-PAGE-fluorography.”

“Also recorded” adds a separate entry of the source.

As for `CC[C@@]1([C@@H]2O[C@@H]([C@H]3O[C@@](O)(CO)[C@H](C)C[C@@H]3C)C[C@@H]2C)CC[C@H]([C@]2(C)CC[C@]3(C[C@H](O)[C@@H](C)[C@@H]([C@@H](C)[C@@H](OC)[C@H](C)C(=O)O)O3)O2)O1` [monensin], the “cell surface expression of CEP, sensitivity to drug” value in the assay with CEP was “sensitive”. Further, the “effect of inhibitors of secretion on the secretion of hTM5 (in words)” value (“effect of inhibitors of secretion” below) in assay [1] is “inhibited; also recorded: absence of hTM5”.

Turning to `CCCCCCCCCCCCCC(=O)O[C@@H]1[C@@H](C)[C@@]2(O)[C@@H](C=C(CO)C[C@]3(O)C(=O)C(C)=C[C@@H]23)[C@@H]2C(C)(C)[C@]12OC(C)=O` [PMA, phorbol-12-myristate-13-acetate], the “effect on mucin secretion in LS-180 cells” value in assay [2] is reported as “stimulate”. Besides, the “effect on secretion of CEP (in words)” value in assay [3] was “unaffected”. Also, in assay [1], the “effect on the secretion of hTM5 (in words)” value is “almost totally inhibited” and the “effect of inhibitors of secretion” value was “absence of hTM5”.

As to `CNc1ccc2oc(C[C@H]3O[C@@]4(CC[C@H]3C)O[C@H]([C@H](C)C(=O)c3ccc[nH]3)[C@H](C)C[C@H]4C)nc2c1C(=O)O` [A23187], the “effect on mucin secretion in LS-180 cells” value in assay [2] is “stimulate”. In addition, in assay [3], the “effect on secretion of CEP (in words)” value is recorded as “unaffected”. Besides, the “effect on the secretion of hTM5 (in words)” value in assay [1] is “increased”. For the same compound, the “stimulation of the secretion of hTM5 (31 kDa band, densitometry) compared to only DMSO treatment” value is reported as 4.5 fold in assay [1] (7E12H12 immunoprecipitation (FIG. 7B)) and 7.8 fold in assay [1] (LC-1 immunoprecipitation (FIG. 7C)).

As for `CN` [methylamine], in assay [1], the “effect of inhibitors of secretion” value was “inhibited; also recorded: absence of hTM5”.
